Source: patent US20240058464A1 (Fortis Therapeutics, Inc., priority 2021, published 2024)

Legend:
[1] = test system: CD46 expression; assay: CD46 expression by RNA-sequencing in unpaired pre-treatment and post-treatment tumor biopsies; format: in vivo, human; conditions: for CD46 expression Post: post-treatment biopsies
[2] = test system: CD46 expression; assay: CD46 expression by RNA-sequencing in paired tumor biopsies before and after therapy; conditions: paired biopsies; for CD46 expression, Post-Treatment Biopsy / CD46 expression, Pre-Treatment Biopsy: RNA-seq log2-transformed counts;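 as to all read-outs here: FFPE human tumor biopsies, exome-capture RNA-seq, reads aligned to GRCh37, counts normalized for GC content, length and depth, summed per gene, log2-transformed, samples paired before versus after therapy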
[3] = Breast Cancer, Post minus Pre, unpaired biopsies, log2-transformed counts
[4] = Breast Cancer, post- vs pre-treatment unpaired biopsies
[5] = Breast Cancer, unpaired, RNA-seq log2-transformed normalized counts
[6] = Colorectal Cancer, Post minus Pre, unpaired biopsies, log2-transformed counts
[7] = Colorectal Cancer, post- vs pre-treatment unpaired biopsies
[8] = Colorectal Cancer, unpaired, RNA-seq log2-transformed normalized counts
[9] = Endometrial Cancer, Post minus Pre, unpaired biopsies, log2-transformed counts
[10] = Endometrial Cancer, post- vs pre-treatment unpaired biopsies
[11] = Endometrial Cancer, unpaired, RNA-seq log2-transformed normalized counts
[12] = Head and Neck Squamous Cell Carcinoma, Post minus Pre, unpaired biopsies, log2-transformed counts
[13] = Head and Neck Squamous Cell Carcinoma, post- vs pre-treatment unpaired biopsies
[14] = Head and Neck Squamous Cell Carcinoma, unpaired, RNA-seq log2-transformed normalized counts
[15] = Non-Small Cell Lung Cancer, Post minus Pre, unpaired biopsies, log2-transformed counts
[16] = Non-Small Cell Lung Cancer, post- vs pre-treatment unpaired biopsies
[17] = Non-Small Cell Lung Cancer, unpaired, RNA-seq log2-transformed normalized counts
[18] = Ovarian Cancer, Post minus Pre, unpaired biopsies, log2-transformed counts
[19] = Ovarian Cancer, post- vs pre-treatment unpaired biopsies
[20] = Ovarian Cancer, unpaired, RNA-seq log2-transformed normalized counts
[21] = Sarcoma, Post minus Pre, unpaired biopsies, log2-transformed counts
[22] = Sarcoma, post- vs pre-treatment unpaired biopsies
[23] = Sarcoma, unpaired, RNA-seq log2-transformed normalized counts

Question: For `N.N.O=C([O-])C1(C(=O)[O-])CCC1.[Pt+2]` [carboplatin], which CD46 expression diff ([1]; Bladder Cancer, Post minus Pre, unpaired biopsies, log2-transformed counts) is on record?
Answer: 0.14

Question: What about the “CD46 expression Percentage change” value ([1]; Bladder Cancer, post- vs pre-treatment unpaired biopsies) of the same molecule?
Answer: 2.3%

Question: What about the “CD46 expression Post” value ([1]; Bladder Cancer, unpaired, RNA-seq log2-transformed normalized counts) of the same molecule?
Answer: 6.12

Question: And the CD46 expression diff [1, 3]?
Answer: −0.07

Question: What about the “CD46 expression Percentage change” value [1, 4] of the same molecule?
Answer: −1.1%

Question: And the “CD46 expression Post” value [1, 5]?
Answer: 6.00

Question: And the CD46 expression diff [1, 6]?
Answer: 0.59

Question: And the “CD46 expression Percentage change” value [1, 7]?
Answer: 10.3%

Question: And the “CD46 expression Post” value [1, 8]?
Answer: 6.35

Question: And the CD46 expression diff ([1]; Endocrine Tumor, Post minus Pre, unpaired biopsies, log2-transformed counts)?
Answer: 0.22

Question: And the “CD46 expression Percentage change” value ([1]; Endocrine Tumor, post- vs pre-treatment unpaired biopsies)?
Answer: 3.9%

Question: And the “CD46 expression Post” value ([1]; Endocrine Tumor, unpaired, RNA-seq log2-transformed normalized counts)?
Answer: 5.90

Question: What about the CD46 expression diff [1, 9] of the same molecule?
Answer: 0.01

Question: And the “CD46 expression Percentage change” value [1, 10]?
Answer: 0.2%

Question: What about the “CD46 expression Post” value [1, 11] of the same molecule?
Answer: 5.83

Question: And the CD46 expression diff ([1]; Esophageal Cancer, Post minus Pre, unpaired biopsies, log2-transformed counts)?
Answer: −0.11

Question: What about the “CD46 expression Percentage change” value ([1]; Esophageal Cancer, post- vs pre-treatment unpaired biopsies) of the same molecule?
Answer: −1.8%

Question: What about the “CD46 expression Post” value ([1]; Esophageal Cancer, unpaired, RNA-seq log2-transformed normalized counts) of the same molecule?
Answer: 5.79

Question: What about the CD46 expression diff [1, 12] of the same molecule?
Answer: 0.11

Question: What about the “CD46 expression Percentage change” value [1, 13] of the same molecule?
Answer: 2.0%

Question: And the “CD46 expression Post” value [1, 14]?
Answer: 5.69

Question: And the CD46 expression diff [1, 15]?
Answer: −0.08

Question: What about the “CD46 expression Percentage change” value [1, 16] of the same molecule?
Answer: −1.2%

Question: And the “CD46 expression Post” value [1, 17]?
Answer: 6.10

Question: What about the CD46 expression diff [1, 18] of the same molecule?
Answer: −0.01

Question: What about the “CD46 expression Percentage change” value [1, 19] of the same molecule?
Answer: −0.2%

Question: And the “CD46 expression Post” value [1, 20]?
Answer: 5.73

Question: What about the CD46 expression diff ([1]; Prostate Cancer, Post minus Pre, unpaired biopsies, log2-transformed counts) of the same molecule?
Answer: −0.03

Question: What about the “CD46 expression Percentage change” value ([1]; Prostate Cancer, post- vs pre-treatment unpaired biopsies) of the same molecule?
Answer: −0.5%

Question: What about the “CD46 expression Post” value ([1]; Prostate Cancer, unpaired, RNA-seq log2-transformed normalized counts) of the same molecule?
Answer: 5.92

Question: And the “CD46 expression diff (post minus pre)” value ([2]; Breast Cancer)?
Answer: −0.08

Question: And the “Percent Change in CD46 expression” value ([2]; Breast Cancer)?
Answer: −1.2%

Question: What about the “CD46 expression, Post-Treatment Biopsy” value ([2]; Breast Cancer) of the same molecule?
Answer: 6.06

Question: And the “CD46 expression, Pre-Treatment Biopsy” value ([2]; Breast Cancer)?
Answer: 6.14

Question: And the “CD46 expression diff (post minus pre)” value ([2]; Endometrial Cancer)?
Answer: 0.30

Question: And the “Percent Change in CD46 expression” value ([2]; Endometrial Cancer)?
Answer: 5.1%

Question: What about the “CD46 expression, Pre-Treatment Biopsy” value ([2]; Endometrial Cancer) of the same molecule?
Answer: 5.95

Question: What about the “CD46 expression diff (post minus pre)” value ([2]; Non-Small Cell Lung Cancer) of the same molecule?
Answer: −0.06

Question: And the “Percent Change in CD46 expression” value ([2]; Non-Small Cell Lung Cancer)?
Answer: −1.0%

Question: What about the “CD46 expression, Post-Treatment Biopsy” value ([2]; Non-Small Cell Lung Cancer) of the same molecule?
Answer: 6.07

Question: What about the “CD46 expression diff (post minus pre)” value ([2]; Ovarian Cancer) of the same molecule?
Answer: 0.01

Question: What about the “Percent Change in CD46 expression” value ([2]; Ovarian Cancer) of the same molecule?
Answer: 0.2%

Question: What about the “CD46 expression, Post-Treatment Biopsy” value ([2]; Ovarian Cancer) of the same molecule?
Answer: 5.67

Question: And the “CD46 expression, Pre-Treatment Biopsy” value ([2]; Ovarian Cancer)?
Answer: 5.66

Question: `N.N.[Cl][Pt][Cl]` [cisplatin] was tested. Which CD46 expression diff ([1]; Biliary Cancer, Post minus Pre, unpaired biopsies, log2-transformed counts) did it give?
Answer: −0.06

Question: And the “CD46 expression Percentage change” value ([1]; Biliary Cancer, post- vs pre-treatment unpaired biopsies)?
Answer: −1.0%

Question: What about the “CD46 expression Post” value ([1]; Biliary Cancer, unpaired, RNA-seq log2-transformed normalized counts) of the same molecule?
Answer: 5.76

Question: What about the CD46 expression diff ([1]; Bladder Cancer, post minus pre, unpaired biopsies) of the same molecule?
Answer: −0.19

Question: What about the “CD46 expression Percentage change” value ([1]; Bladder Cancer, post vs pre, unpaired biopsies) of the same molecule?
Answer: −3.1%

Question: And the “CD46 expression Post” value ([1]; Bladder Cancer, log2-transformed RNA-seq counts)?
Answer: 6.00

Question: What about the “CD46 expression Pre” value ([1]; Bladder Cancer, pre-treatment biopsies, log2-transformed RNA-seq counts) of the same molecule?
Answer: 6.19

Question: What about the CD46 expression diff [1, 3] of the same molecule?
Answer: 0.02

Question: And the “CD46 expression Percentage change” value [1, 4]?
Answer: 0.3%

Question: And the “CD46 expression Post” value [1, 5]?
Answer: 5.98

Question: What about the CD46 expression diff [1, 9] of the same molecule?
Answer: 0.26

Question: And the “CD46 expression Percentage change” value [1, 10]?
Answer: 4.6%

Question: And the “CD46 expression Post” value [1, 11]?
Answer: 5.99

Question: And the CD46 expression diff [1, 12]?
Answer: 0.13

Question: What about the “CD46 expression Percentage change” value [1, 13] of the same molecule?
Answer: 2.4%

Question: And the “CD46 expression Post” value [1, 14]?
Answer: 5.69

Question: And the CD46 expression diff [1, 15]?
Answer: −0.05

Question: What about the “CD46 expression Percentage change” value [1, 16] of the same molecule?
Answer: −0.8%

Question: And the “CD46 expression Post” value [1, 17]?
Answer: 6.11

Question: And the CD46 expression diff [1, 18]?
Answer: 0.03

Question: And the “CD46 expression Percentage change” value [1, 19]?
Answer: 0.6%

Question: What about the “CD46 expression Post” value [1, 20] of the same molecule?
Answer: 5.79

Question: What about the CD46 expression diff ([1]; Pancreatic Cancer, Post minus Pre, unpaired biopsies, log2-transformed counts) of the same molecule?
Answer: 0.18

Question: And the “CD46 expression Percentage change” value ([1]; Pancreatic Cancer, post- vs pre-treatment unpaired biopsies)?
Answer: 3.1%

Question: And the “CD46 expression Post” value ([1]; Pancreatic Cancer, unpaired, RNA-seq log2-transformed normalized counts)?
Answer: 6.16

Question: What about the CD46 expression diff [1, 21] of the same molecule?
Answer: 0.19

Question: And the “CD46 expression Percentage change” value [1, 22]?
Answer: 3.9%

Question: What about the “CD46 expression Post” value [1, 23] of the same molecule?
Answer: 5.02

Question: What about the “CD46 expression after treatment vs pre-treatment” value ([1]; head and neck squamous cell carcinoma, unpaired biopsies, FIG. 7) of the same molecule?
Answer: significantly higher

Question: And the “CD46 expression diff (post minus pre)” value ([2]; Biliary Cancer)?
Answer: 0.15

Question: And the “Percent Change in CD46 expression” value ([2]; Biliary Cancer)?
Answer: 2.6%

Question: What about the “CD46 expression, Post-Treatment Biopsy” value ([2]; Biliary Cancer) of the same molecule?
Answer: 5.97

Question: What about the “CD46 expression, Pre-Treatment Biopsy” value ([2]; Biliary Cancer) of the same molecule?
Answer: 5.82

Question: And the “CD46 expression diff (post minus pre)” value ([2]; Bladder Cancer)?
Answer: 0.10

Question: What about the “Percent Change in CD46 expression” value ([2]; Bladder Cancer) of the same molecule?
Answer: 1.6%

Question: What about the “CD46 expression, Pre-Treatment Biopsy” value ([2]; Bladder Cancer) of the same molecule?
Answer: 6.15

Question: What about the “CD46 expression diff (post minus pre)” value ([2]; Non-Small Cell Lung Cancer) of the same molecule?
Answer: −0.45

Question: What about the “Percent Change in CD46 expression” value ([2]; Non-Small Cell Lung Cancer) of the same molecule?
Answer: −7.2%

Question: And the “CD46 expression, Post-Treatment Biopsy” value ([2]; Non-Small Cell Lung Cancer)?
Answer: 5.85

Question: Which results are given for `O=P1(N(CCCl)CCCl)NCCCO1` (centres unmarked) [cyclophosphamide]?
Answer: CD46 expression diff [1, 3]: −0.03; CD46 expression Percentage change [1, 4]: −0.4%; CD46 expression Post [1, 5]: 6.08; CD46 expression diff [1, 18]: 0.11; CD46 expression Percentage change [1, 19]: 1.9%; CD46 expression Post [1, 20]: 5.76; CD46 expression diff [1, 21]: 0.06; CD46 expression Percentage change [1, 22]: 1.2%; CD46 expression Post [1, 23]: 5.12; CD46 expression diff (post minus pre) ([2]; Breast Cancer): 0.01; Percent Change in CD46 expression ([2]; Breast Cancer): 0.2%; CD46 expression, Post-Treatment Biopsy ([2]; Breast Cancer): 6.22

Question: With `C[C@@H]1C[C@H]2[C@@H]3CCC4=CC(=O)C=C[C@]4(C)[C@@]3(F)[C@@H](O)C[C@]2(C)[C@@]1(O)C(=O)CO` [dexamethasone] as the molecule, how does the CD46 expression diff [1, 3] read?
Answer: −0.07

Question: And the “CD46 expression Percentage change” value [1, 4]?
Answer: −1.1%

Question: And the “CD46 expression Post” value [1, 5]?
Answer: 6.20

Question: And the CD46 expression diff [1, 6]?
Answer: 0.06

Question: What about the “CD46 expression Percentage change” value [1, 7] of the same molecule?
Answer: 1.0%

Question: And the “CD46 expression Post” value [1, 8]?
Answer: 6.44

Question: What about the CD46 expression diff [1, 15] of the same molecule?
Answer: 0.00

Question: What about the “CD46 expression Percentage change” value [1, 16] of the same molecule?
Answer: 0.0%

Question: What about the “CD46 expression Post” value [1, 17] of the same molecule?
Answer: 6.14

Question: What about the CD46 expression diff ([1]; Ovarian Cancer, post minus pre, unpaired biopsies) of the same molecule?
Answer: −0.22

Question: What about the “CD46 expression Percentage change” value ([1]; Ovarian Cancer, post vs pre, unpaired biopsies) of the same molecule?
Answer: −3.9%

Question: What about the “CD46 expression Post” value ([1]; Ovarian Cancer, log2-transformed RNA-seq counts) of the same molecule?
Answer: 5.48

Question: And the CD46 expression diff ([1]; Pancreatic Cancer, post minus pre, unpaired biopsies)?
Answer: −0.27

Question: And the “CD46 expression Percentage change” value ([1]; Pancreatic Cancer, post vs pre, unpaired biopsies)?
Answer: −4.5%

Question: And the “CD46 expression Post” value ([1]; Pancreatic Cancer, log2-transformed RNA-seq counts)?
Answer: 5.75

Question: What about the “CD46 expression diff (post minus pre)” value ([2]; Colorectal Cancer) of the same molecule?
Answer: −0.19

Question: What about the “Percent Change in CD46 expression” value ([2]; Colorectal Cancer) of the same molecule?
Answer: −3.0%

Question: What about the “CD46 expression, Post-Treatment Biopsy” value ([2]; Colorectal Cancer) of the same molecule?
Answer: 5.96
